Test system: neurotensin receptor (CRE-driven luciferase)
Experiment: CRE-luciferase reporter mice, whole-animal brain luminescence (IVIS)
Type: in vivo
Conditions: 1.68 mg rolipram and 0.84 mg forskolin given together IP, luciferin four hours after, FIG. 31

Compound: COc1ccc(C2CNC(=O)C2)cc1OC1CCCC1 (stereo not shown) [rolipram]
- CRE-driven luciferase induction (brain luminescence), positive control: high levels of luminescence from the animal's brain
